Laboratory results from the supplement of paper PMC10949913.

Columns and labels:
CU-ACC1 = experiment: area under concentration-response curve (viability) (AUC (a.u.)); higher = less active; conditions: 48 h
Outline: (§1)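 Library compounds were tested at 11 concentrations against three adrenocortical carcinoma cell lines in 1,536-well plates. CellTiter-Glo luminescence was read after 48 h and normalised per plate to vehicle and empty-well controls. Only inhibitory or non-responding curve classes from fitted concentration-response curves contributed AC50 and area under the curve.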

NCI-H295R = experiment: as above; conditions: 48 h
Outline: as §1

Cc1ncc(OC[C@@]2(c3cccc(F)c3)C[C@H]2C(=O)Nc2ccc(F)cn2)c(C)n1
area under concentration-response curve (CU-ACC1): 457
area under concentration-response curve (NCI-H295R): 516

O=C(O)C1(Cc2cccc(Nc3nccs3)n2)CCC(Oc2cccc(Cl)c2F)CC1 (configuration not stated)
area under concentration-response curve (CU-ACC1): 511
area under concentration-response curve (NCI-H295R): 510

CN1C(=O)C[C@H](C(=O)N[C@@H](Cc2cnc[nH]2)C(=O)N2CCC[C@H]2C(N)=O)NC1=O
area under concentration-response curve (CU-ACC1): 537
area under concentration-response curve (NCI-H295R): 589

C[C@@]1(c2ncncc2F)NC(=O)c2cc(-c3cn[nH]c3)ccc21
area under concentration-response curve (CU-ACC1): 528
area under concentration-response curve (NCI-H295R): 546

COC1=C(OC)C(=O)C(C/C=C(\C)CC/C=C(\C)CC/C=C(\C)CC/C=C(/C)CC/C=C(\C)CC/C=C(\C)CC/C=C(\C)CC/C=C(\C)CC/C=C(\C)CCC=C(C)C)=C(C)C1=O
area under concentration-response curve (CU-ACC1): 502
area under concentration-response curve (NCI-H295R): 559

CCn1c(C(=O)N(C2CC2)C2CC2)cc2c3c(ncn3C)c(Nc3cc(C)n(C)n3)nc21
area under concentration-response curve (CU-ACC1): 422
area under concentration-response curve (NCI-H295R): 540

COC(=O)C[C@](O)(CCCC(C)(C)O)C(=O)O[C@@H]1C(OC)=CC23CCCN2CCc2cc4c(cc2[C@H]13)OCO4 (some centres not stated)
area under concentration-response curve (CU-ACC1): 149
area under concentration-response curve (NCI-H295R): 252

N[C@H](CSC(c1ccccc1)(c1ccccc1)c1ccccc1)C(=O)O
area under concentration-response curve (CU-ACC1): 529
area under concentration-response curve (NCI-H295R): 564

CC1(C)[C@@H](O)CC[C@@]2(C)[C@H]1CC[C@]3(C)[C@@H]2C(=O)\C=C/4[C@@H]5C[C@](C)(CC[C@]5(C)CC[C@@]34C)C(O)=O
area under concentration-response curve (CU-ACC1): 512
area under concentration-response curve (NCI-H295R): 545

O=C(Nc1nc2ccccc2n1CCN1CCOCC1)c1cccc([N+](=O)[O-])c1
area under concentration-response curve (CU-ACC1): 527
area under concentration-response curve (NCI-H295R): 549

Cc1ccc(Nc2cc(-c3cccc(N4C(=O)c5ccccc5C4=O)c3)ncn2)cc1N[S+](C)(=O)[O-]
area under concentration-response curve (CU-ACC1): 462
area under concentration-response curve (NCI-H295R): 490

Cc1ccc(Nc2cc(N[C@@H]3CCCC[C@@H]3N)nnc2C(N)=O)nc1C
area under concentration-response curve (CU-ACC1): 516
area under concentration-response curve (NCI-H295R): 568

Cc1ccc(-c2ccc3c(ccc4sc5c(c43)NC[C@@H](C)NC5=O)n2)cn1
area under concentration-response curve (CU-ACC1): 473
area under concentration-response curve (NCI-H295R): 504

CN(C)CCN1C(=O)c2cccc3cc(NC(N)=O)cc(c23)C1=O
area under concentration-response curve (CU-ACC1): 521
area under concentration-response curve (NCI-H295R): 542

COC1=C(OC)C=C2C(=C1)C(=O)N(CCCN3CCOCC3)\C4=C2\C(=O)C5=C4C=C6OCOC6=C5
area under concentration-response curve (CU-ACC1): 400
area under concentration-response curve (NCI-H295R): 463

OC[C@H]1O[C@H](C[C@@H]1O)[N]2C=NC3=C2\N=C/NC[C@H]3O
area under concentration-response curve (CU-ACC1): 485
area under concentration-response curve (NCI-H295R): 509

COC(=O)N1CC2(CC2)C[C@H](C(=O)NO)[C@H]1C(=O)N1CCN(c2ccccc2)CC1
area under concentration-response curve (CU-ACC1): 412
area under concentration-response curve (NCI-H295R): 470

CCOc1ccc(Cc2cc([C@@H]3O[C@H](CO)[C@@H](O)[C@H](O)[C@H]3O)ccc2Cl)cc1
area under concentration-response curve (CU-ACC1): 464
area under concentration-response curve (NCI-H295R): 494

Cc1c[nH]c(-c2cnc(NCCNc3ccc(C#N)cn3)nc2-c2ccc(Cl)cc2Cl)n1
area under concentration-response curve (CU-ACC1): 538
area under concentration-response curve (NCI-H295R): 558

CC#CC(=O)N1CCC[C@H]1c1nc(-c2ccc(C(=O)Nc3ccccn3)cc2)c2c(N)nccn12
area under concentration-response curve (CU-ACC1): 474
area under concentration-response curve (NCI-H295R): 509

N[C@@H](Cc1c[nH]c2ccc(O)cc12)C(=O)O
area under concentration-response curve (CU-ACC1): 483
area under concentration-response curve (NCI-H295R): 567

CCCCC[C@H](O)/C=C/[C@H]1[C@H](O)CC(=O)[C@@H]1C/C=C\CCCC(=O)O
area under concentration-response curve (CU-ACC1): 485
area under concentration-response curve (NCI-H295R): 529

O=C(Nc1cccc(C(F)(F)F)c1)c1cccc2cc(Oc3cc(CO)ncn3)ccc12
area under concentration-response curve (CU-ACC1): 516
area under concentration-response curve (NCI-H295R): 579

Cc1c(CCOc2ccc(C(=O)O)cc2)c2cc(Cl)ccc2n1C(c1ccccc1)c1ccccc1
area under concentration-response curve (CU-ACC1): 536
area under concentration-response curve (NCI-H295R): 600

CONC(=O)Nc1ccc(-c2sc3c(c2CN(C)Cc2ccccc2)c(=O)n(-c2ccccc2)c(=O)n3Cc2c(F)cccc2F)cc1
area under concentration-response curve (CU-ACC1): 531
area under concentration-response curve (NCI-H295R): 556

COC1=C(OC)C=C2C(=CC=NC2=C1)OC3=CC=C(NC(=O)\C4=C\N(C(C)C)C(=O)N(C4=O)C5=CC=C(F)C=C5)C=C3F
area under concentration-response curve (CU-ACC1): 489
area under concentration-response curve (NCI-H295R): 460

CC(C)(C)C(=O)N1\N=C/C[C@H]1C2=CC=CC=C2
area under concentration-response curve (CU-ACC1): 549
area under concentration-response curve (NCI-H295R): 568

CO[C@H]1CC[C@]2(CC1)CC3=C(C=C(C=C3)C4=CN=CC(=C4)C#CC)[C@@]2/5\N=C(C)/C(=N5)N
area under concentration-response curve (CU-ACC1): 487
area under concentration-response curve (NCI-H295R): 532

CCOC(=O)C1=CCCCC1[S+](=O)([O-])Nc1ccc(F)cc1Cl (configuration not stated)
area under concentration-response curve (CU-ACC1): 517
area under concentration-response curve (NCI-H295R): 573

Cn1cnc([N+](=O)[O-])c1Sc1ncnc2nc[nH]c12
area under concentration-response curve (CU-ACC1): 427
area under concentration-response curve (NCI-H295R): 472

OCCN1CCN(CCCN2c3ccccc3Sc3ccc(C(F)(F)F)cc32)CC1
area under concentration-response curve (CU-ACC1): 432
area under concentration-response curve (NCI-H295R): 279

C[N]1N=CN=C1[C@@H]2[C@H](NC3=CC(=CC4=C3\C2=N/NC4=O)F)C5=CC=C(F)C=C5
area under concentration-response curve (CU-ACC1): 405
area under concentration-response curve (NCI-H295R): 415

CN1C(=O)[C@@H](NC(=O)c2nc(Cc3ccccc3)n[nH]2)COc2ccccc21
area under concentration-response curve (CU-ACC1): 536
area under concentration-response curve (NCI-H295R): 559

c1cc(OCCN2CCCCC2)cc(-c2n[nH]c3ccc(-c4nc[nH]n4)cc23)c1
area under concentration-response curve (CU-ACC1): 525
area under concentration-response curve (NCI-H295R): 563

Cn1cnc2c1c(=O)[nH]c(=O)n2C
area under concentration-response curve (CU-ACC1): 544
area under concentration-response curve (NCI-H295R): 575

CCc1ccc(CCOc2ccc(CC3SC(=O)NC3=O)cc2)nc1 (configuration not stated)
area under concentration-response curve (CU-ACC1): 112
area under concentration-response curve (NCI-H295R): 110

O=C(O)c1cc(/N=N/c2ccc(S(=O)(=O)Nc3ccccn3)cc2)ccc1O
area under concentration-response curve (CU-ACC1): 505
area under concentration-response curve (NCI-H295R): 522

Cn1cc(-c2cnn3c(N)c(Br)c(C4CCCNC4)nc23)cn1 (configuration not stated)
area under concentration-response curve (CU-ACC1): 516
area under concentration-response curve (NCI-H295R): 557

CCN1\C=C(C(O)=O)/C(=O)C2=C1C=C(N3CCN(C)CC3)C(=C2)F
area under concentration-response curve (CU-ACC1): 511
area under concentration-response curve (NCI-H295R): 555

C[C@H](NC(=O)Cc1cc(F)cc(F)c1)C(=O)N[C@@H]1C(=O)N(C)c2ccccc2-c2ccccc21
area under concentration-response curve (CU-ACC1): 516
area under concentration-response curve (NCI-H295R): 528

Cc1csc(-c2nnc(Nc3ccc(Oc4ncccc4-c4ccnc(N)n4)cc3)c3ccccc23)c1
area under concentration-response curve (CU-ACC1): 504
area under concentration-response curve (NCI-H295R): 470

NC\1=N\C(=O)N(\C=C1F)[C@H]2C[C@H](O)[C@@H](CO)O2
area under concentration-response curve (CU-ACC1): 334
area under concentration-response curve (NCI-H295R): 416

c1ccc2c(Oc3nc(Nc4ccc(N5CCOCC5)cc4)c4ncn(C5CCCCC5)c4n3)cccc2c1
area under concentration-response curve (CU-ACC1): 481
area under concentration-response curve (NCI-H295R): 535

CCOC(=O)Nc1ccc(NCc2ccc(F)cc2)cc1N
area under concentration-response curve (CU-ACC1): 543
area under concentration-response curve (NCI-H295R): 578

COC1=CC=CC(=C1/C2=N/CC3=C(N=C(NC4=CC(=C(C=C4)C(O)=O)OC)N=C3)C5=CC=C(Cl)C=C25)F
area under concentration-response curve (CU-ACC1): 441
area under concentration-response curve (NCI-H295R): 469

O=C(NNc1ccccc1)c1ccncc1
area under concentration-response curve (CU-ACC1): 483
area under concentration-response curve (NCI-H295R): 527

CCCN1CCN(c2ccc(C(=O)NC3(C(=O)NCC#N)CCCCC3)cc2)CC1
area under concentration-response curve (CU-ACC1): 375
area under concentration-response curve (NCI-H295R): 299

COC1=C(OC)C=C2C(=C1)C(=O)N(CCC[N]3C=CN=C3)\C4=C2\C(=O)C5=CC6=C(OCO6)C=C45
area under concentration-response curve (CU-ACC1): 468
area under concentration-response curve (NCI-H295R): 517

CCCC[S+](=N)([O-])CCC(N)C(=O)O (configuration not stated)
area under concentration-response curve (CU-ACC1): 472
area under concentration-response curve (NCI-H295R): 533

CN[C@@H](C)[C@H]1[C@H](O)C[C@@]2(C)[C@@H]3CC[C@H]4C(C)(C)[C@@H](NC)CC[C@@]45C[C@@]35CC[C@]12C
area under concentration-response curve (CU-ACC1): 546
area under concentration-response curve (NCI-H295R): 613

COc1ccc2nc3[nH]nc(C)c3c(NCCOCCO)c2c1
area under concentration-response curve (CU-ACC1): 545
area under concentration-response curve (NCI-H295R): 574

COc1cccc(OC)c1-c1cc(C(=O)NC2(C(=O)O)C3CC4CC(C3)CC2C4)nn1-c1ccnc2cc(Cl)ccc12 (configuration not stated)
area under concentration-response curve (CU-ACC1): 513
area under concentration-response curve (NCI-H295R): 569

CN(C[C@@H]1COCCO1)[S+]([O-])(=O)NC2=CC3=C(C=C2)\C=C/C4=C(C=C(C=N4)C5=C[N](C)N=C5)C3=O
area under concentration-response curve (CU-ACC1): 547
area under concentration-response curve (NCI-H295R): 578

CC(C)(O)[C@H]1CC[C@@](C)([C@H]2[C@@H](O)C[C@@]3(C)[C@@H]4C[C@H](O[C@@H]5O[C@H](CO)[C@@H](O)[C@H](O)[C@H]5O)[C@H]5C(C)(C)[C@@H](O[C@@H]6OC[C@@H](O)[C@H](O)[C@H]6O)CC[C@@]56C[C@@]46CC[C@]23C)O1
area under concentration-response curve (CU-ACC1): 535
area under concentration-response curve (NCI-H295R): 547

C/C(O)=C(\C#N)C(=O)Nc1cc(Br)ccc1Br
area under concentration-response curve (CU-ACC1): 446
area under concentration-response curve (NCI-H295R): 456

O=C\1N(N\C=C1[N]2C=CN=N2)C3=NC=NC(=C3)N4CCOCC4
area under concentration-response curve (CU-ACC1): 492
area under concentration-response curve (NCI-H295R): 521
